Laboratory results published in patent publication US4464388A, “Use of prostaglandin analogues to treat cytodamage” (priority 1982, dated 1984).
Where two headings read alike, the source gives them in different places.

Key:
[1] = system: carbon tetrachloride (CCl4) induced liver damage; assay: Effect on carbon tetrachloride (CCl4) induced liver damage (liver cell necrosis type); assay type: in vivo, Male Wistar rats; details: for inhibition in vivo at 0.1 mg/kg / inhibition in vivo at 0.02 mg/kg / inhibition in vivo at 0.5 mg/kg / inhibition in vivo at 0.05 mg/kg / inhibition in vivo at 1 mg/kg / inhibition in vivo at 1.5 mg/kg: Rattus norvegicus, 24 h; for inhibition in vivo at 0.02 mg/kg: 20 μg/kg; for inhibition in vivo at 0.5 mg/kg: 500 μg/kg; for inhibition in vivo at 0.05 mg/kg: 50 μg/kg; for inhibition in vivo at 1 mg/kg: 1000 μg/kg; for inhibition in vivo at 1.5 mg/kg: 1500 μg/kg
Experimental: Effect on carbon tetrachloride (CCl4) induced liver damage (liver cell necrosis type)
Male Wistar rats weighing 180-220 g were used. Rats were dosed intraperitoneally with CCl4 dissolved in olive oil (5%, w/v) at a volume of 500 μl/kg after 18 hr starvation. The compound under test was administered orally (p.o.) or subcutaneously (s.c.) 6 and 12 hr after CCl4 injection in rats and blood was collected after 24 hr. Plasma glutamic oxaloacetic transaminase (GOT) and glutamic pyruvic transaminase (GPT) activities were determined by ultraviolet absorbance methods (optimised method based on the recommendations of the Deutsche Gesellschaft fur Klinische Chemie). The effects of the compounds tested were assessed by the inhibition rate in comparison with controls. Inhibition rate was calculated by the following formula. [formula] The results obtained are shown in the following Tables 1A and 1B for compounds of the general formula: [drawing 10] wherein R, R^1 and --X--Y--Z-- have the meanings indicated.
In Tables 1A, 1B and 2 to 5 hereinafter the dose shown in the amount given at each administration of the compound under test.

Acute toxicity test = details: mouse, in vivo; oral, mice observed for 14 days
Experimental: Male JCL-ICR mice (non SPF mice) from 7 weeks of age were used. The compound under test was dissolved in 5% v/v ethanol containing 0.4% w/v Tween 80 (Tween is a registered trademark) and administered orally to the mice. […] The deaths observed were all within 72 hrs after treatment.

[2] = system: blood platelet aggregation; details: cited from earlier work
artery = details: cited from earlier work
[3] = po, p.o., 100 μg/kg, plasma GOT after 24 hr, read-out: inhibition rate GOT
[4] = po, p.o., 100 μg/kg, plasma GPT after 24 hr, read-out: inhibition rate GPT
[5] = sc, s.c., plasma GOT after 24 hr, read-out: inhibition rate GOT
[6] = sc, s.c., plasma GPT after 24 hr, read-out: inhibition rate GPT
[7] = po, p.o., plasma GOT after 24 hr, read-out: inhibition rate GOT
[8] = po, p.o., plasma GPT after 24 hr, read-out: inhibition rate GPT

Compound: CCCCC1CCC([C@H](O)/C=C/[C@H]2[C@H](O)CC(=O)[C@@H]2CC(=O)CCCCC(=O)OC)C1 (single isomer, unassigned) [Compound 8, 15-(3-Butylcyclopentyl)-16,17,18,19,20-pentanor-6-oxo-PGE1 methyl ester]
- inhibition in vivo at 0.1 mg/kg [1, 3]: 77.7%
- inhibition in vivo at 0.1 mg/kg [1, 4]: 73.7%
- inhibition in vivo at 0.02 mg/kg [1, 5]: 44.4%
- inhibition in vivo at 0.02 mg/kg [1, 6]: 39.3%
- LD50 at 336 h (Acute toxicity test): 10 to 20 mg/kg

Compound: CCCC1CCC([C@H](O)/C=C/[C@H]2[C@H](O)CC(=O)[C@@H]2CC(=O)CCCCC(=O)OC)C1 (single isomer, unassigned) [Compound 12, 15-(3-Propylcyclopentyl)-16,17,18,19,20-pentanor-6-oxo-PGE1 methyl ester]
- inhibition rate GOT ([1]; p.o., 100 μg/kg, plasma GOT after 24 hr): 25.4%
- inhibition rate GPT ([1]; p.o., 100 μg/kg, plasma GPT after 24 hr): 22.2%

Compound: CCCC1CCC([C@H](O)/C=C/[C@@H]2[C@H]3CC(CCCCC(=O)OC)=N[C@H]3C[C@H]2O)C1 (single isomer, unassigned) [Compound 14, 15-(3-Propylcyclopentyl)-16,17,18,19,20-pentanor-6,9α-nitrilo-PGI1 methyl ester]
- inhibition in vivo at 0.5 mg/kg [1, 7]: 39.8%
- inhibition in vivo at 0.5 mg/kg [1, 8]: 20.8%
- inhibition in vivo at 0.5 mg/kg [1, 5]: 68.6%
- inhibition in vivo at 0.5 mg/kg [1, 6]: 64.2%
- LD50 at 336 h (Acute toxicity test): 40 to 100 mg/kg

Compound: CCC1CC([C@H](O)/C=C/[C@H]2[C@H](O)CC(=O)[C@@H]2CC(=O)CCCCC(=O)OC)C1 (stereo partly shown) [Compound 1, 15-(3-Ethylcyclobutyl)-16,17,18,19 20-pentanor-6-oxo-PGE1 methyl ester]
- inhibition in vivo at 0.05 mg/kg [1, 5]: 21%
- inhibition in vivo at 0.05 mg/kg [1, 6]: 0%

Compound: CCCC1CC([C@H](O)/C=C/[C@H]2[C@H](O)CC(=O)[C@@H]2CC(=O)CCCCC(=O)OC)C1 (stereo partly shown) [Compound 2, 15-(3-Propylcyclobutyl)-16,17,18,19,20-pentanor-6-oxo-PGE1 methyl ester]
- inhibition in vivo at 0.05 mg/kg [1, 5]: 52.4%
- inhibition in vivo at 0.05 mg/kg [1, 6]: 17.3%

Compound: COC(=O)CCCCC(=O)C[C@H]1C(=O)C[C@@H](O)[C@@H]1/C=C/[C@@H](O)C1CCCC1 [Compound 3, 15-Cyclopentyl-16,17,18,19,20-pentanor-6-oxo-PGE1 methyl ester]
- inhibition in vivo at 0.1 mg/kg [1, 3]: 19%
- inhibition in vivo at 0.1 mg/kg [1, 4]: 30.5%
- LD50 at 336 h (Acute toxicity test): 10 to 20 mg/kg

Compound: CCCC1CCC([C@H](O)/C=C/[C@H]2[C@H](O)CC(=O)[C@@H]2CC(=O)CCCCC(=O)OC)C1 (stereo partly shown) [Compound 4, 15-(3-Propylcyclopentyl)-16,17,18,19,20-pentanor-6-oxo-PGE1 methyl ester]
- inhibition in vivo at 0.1 mg/kg [1, 3]: 77%
- inhibition in vivo at 0.1 mg/kg [1, 4]: 51.5%

Compound: CCCC1CCC([C@H](O)/C=C/[C@H]2[C@H](O)CC(=O)[C@@H]2CC(=O)CCCCC(=O)O)C1 (stereo partly shown) [Compound 5, 15-(3-Propylcyclopentyl)-16,17,18,19,20-pentanor-6-oxo-PGE1]
- inhibition in vivo at 0.1 mg/kg [1, 3]: 32.6%
- inhibition in vivo at 0.1 mg/kg [1, 4]: 44.5%

Compound: CCCCC1CCC([C@H](O)/C=C/[C@H]2[C@H](O)CC(=O)[C@@H]2CC(=O)CCCCC(=O)OC)C1 (stereo partly shown) [Compound 7, 15-(3-Butylcyclopentyl)-16,17,18,19,20-pentanor-6-oxo-PGE1 methyl ester]
- inhibition in vivo at 0.1 mg/kg [1, 3]: 62.7%
- inhibition in vivo at 0.1 mg/kg [1, 4]: 55.1%

Compound: COC(=O)CCCCC(=O)C[C@H]1C(=O)C[C@@H](O)[C@@H]1/C=C/[C@@H](O)C1CCC(C)CC1 (stereo partly shown) [Compound 9, 15-(4-Methylcyclohexyl)-16,17,18,19,20-pentanor-6-oxo-PGE1 methyl ester]
- inhibition in vivo at 0.1 mg/kg [1, 3]: 21%
- inhibition in vivo at 0.1 mg/kg [1, 4]: 0%
- inhibition in vivo at 0.05 mg/kg [1, 5]: 13.1%
- inhibition in vivo at 0.05 mg/kg [1, 6]: 8.8%

Compound: CCC1CCC([C@H](O)/C=C/[C@H]2[C@H](O)CC(=O)[C@@H]2CC(=O)CCCCC(=O)OC)CC1 (stereo partly shown) [Compound 10, 15-(4-Ethylcyclohexyl)-16,17,18,19,20-pentanor-6-oxo-PGE1 methyl ester]
- inhibition in vivo at 0.05 mg/kg [1, 5]: 35.6%
- inhibition in vivo at 0.05 mg/kg [1, 6]: 12.2%

Compound: CCCC1CCC([C@H](O)/C=C/[C@H]2[C@H](O)CC(=O)[C@@H]2CC(=O)CCCCC(=O)OC)CC1 (stereo partly shown) [Compound 11, 15-(4-Propylcyclohexyl)-16,17,18,19,20-pentanor-6-oxo-PGE1 methyl ester]
- inhibition in vivo at 0.05 mg/kg [1, 5]: 48.5%
- inhibition in vivo at 0.05 mg/kg [1, 6]: 45.1%

Compound: CCCC1CCC([C@H](O)/C=C/[C@@H]2[C@H]3CC(CCCCC(=O)OC)=N[C@H]3C[C@H]2O)C1 (stereo partly drawn) [Compound 13, 15-(3-Propylcyclopentyl)-16,17,18,19,20-pentanor-6,9α-nitrilo-PGI1 methyl ester]
- inhibition in vivo at 1 mg/kg [1, 7]: 46%
- inhibition in vivo at 1 mg/kg [1, 8]: 32.5%

Compound: CCCCC1CCC([C@H](O)/C=C/[C@@H]2[C@H]3CC(CCCCC(=O)OC)=N[C@H]3C[C@H]2O)C1 (stereo partly drawn) [Compound 15, 15-(3-Butylcyclopentyl)-16,17,18,19,20-pentanor-6,9α-nitrilo-PGI1 methyl ester]
- inhibition in vivo at 1 mg/kg [1, 7]: 45.5%
- inhibition in vivo at 1 mg/kg [1, 8]: 15.6%

Compound: CCCC1CCC([C@H](O)/C=C/[C@@H]2[C@H]3CC(CCCCC(=O)OC)O[C@H]3C[C@H]2O)C1 (stereo partly shown) [Compound 16, 15-(3-Propylcyclopentyl)-16,17,18,19,20-pentanor-PGI1 methyl ester]
- inhibition in vivo at 1.5 mg/kg [1, 7]: 51%
- inhibition in vivo at 1.5 mg/kg [1, 8]: 53%

Compound: CCCC1CCC([C@H](O)/C=C/[C@@H]2[C@H]3C[C@H](CCCCC(=O)OC)O[C@H]3C[C@H]2O)C1 (stereo partly drawn) [Compound 17, (6S)-15-(3-propylcyclopentyl)-16,17,18,19,20-pentanor-PGI1 methyl ester]
- inhibition in vivo at 1 mg/kg [1, 7]: 32.9%
- inhibition in vivo at 1 mg/kg [1, 8]: 32%

Compound: CCCCC[C@H](O)/C=C/[C@H]1O[C@H]2C[C@H](O2)[C@@H]1C/C=C\CCCC(=O)O [thromboxane A2]
- effect on blood platelet aggregation [2]: aggregating activity
- activity on the artery (artery): contracting activity
